This assay concerns spontan hypertensive Ratten (Wistar-Kyoto). As to the kind of experiment: Urine excretion over 5 hours in spontaneously hypertensive rats (metabolic cages). Particulars: mean ± spread. It counts as in vivo, Ratte. As to the method: 10 spontan hypertensive Ratten (Wistar-Kyoto) wurden instrumentiert und während der Versuche in Stoffwechselkäfigen gehalten. Ramipril (=A) (1 mg/kg) und Piretanid (=B) (1,2 und 16 mg/kg) werden in Tylose oral mit Magensonde verabreicht. Die Kontrollgruppe erhielt nur Tylose. Die ausgeschiedene Urinmenge nach 5 Stunden, die Natriumausscheidung nach 5 Stunden sowie der arterielle Mitteldruck wurden bestimmt. Tabelle 1

Each structure is given as a SMILES string.

As for `NS(=O)(=O)c1cc(C(=O)O)cc(N2CCCC2)c1Oc1ccccc1` [B, Piretanid], the Urinmenge by setting is: (1 mg/kg oral in Tylose) 900±180 µ1/100g.5h; (2 mg/kg oral in Tylose) 1470±140 µ1/100g.5h; (16 mg/kg oral in Tylose) 3520±405 µ1/100g.5h.

`CCOC(=O)[C@H](CCc1ccccc1)N[C@@H](C)C(=O)N1[C@H](C(=O)O)C[C@@H]2CCC[C@@H]21` [A, Ramipril]: where the note is “1 mg/kg oral in Tylose”, the Urinmenge was 760±185 µ1/100g.5h.

The values above are taken from patent EP0215357B1, “Pharmaceutical preparation for the treatment of hypertension” (HOECHST AKTIENGESELLSCHAFT, priority 1985, dated 1987).
